Measured values from ChEMBL document CHEMBL4390660, “Synthesis and biological evaluation of marine alkaloid-oriented β-carboline analogues” (Eur J Med Chem, 2019).

How the values were obtained:
SGC-7901 [1] = assay: Cytotoxicity against human SGC7901 cells assessed as growth inhibition at 40 ug/mL after 72 hrs by MTT assay; format: functional; conditions: SGC-7901, 72 h, read-out: GI
[2] = Cytotoxicity against human A875 cells assessed as growth inhibition at 40 ug/mL after 72 hrs by MTT assay; format: functional; conditions: A875, 72 h, read-out: GI
HepG2 [3] = assay: Cytotoxicity against human HepG2 cells assessed as growth inhibition at 40 ug/mL after 72 hrs by MTT assay; format: functional; conditions: HepG2, 72 h, read-out: GI
[4] = Cytotoxicity against African green monkey MARC145 cells assessed as growth inhibition at 40 ug/mL after 72 hrs by MTT assay; format: functional; conditions: Chlorocebus aethiops, MARC145, 72 h; read-out: GI
SGC-7901 [5] = assay: Cytotoxicity against human SGC7901 cells assessed as growth inhibition after 72 hrs by MTT assay; format: functional, cell-based; conditions: SGC-7901, 72 h
[6] = Cytotoxicity against human A875 cells assessed as growth inhibition after 72 hrs by MTT assay; format: functional, cell-based; conditions: A875, 72 h
HepG2 [7] = assay: Cytotoxicity against human HepG2 cells assessed as growth inhibition after 72 hrs by MTT assay; format: functional, cell-based; conditions: HepG2, 72 h
[8] = Cytotoxicity against African green monkey MARC145 cells assessed as growth inhibition after 72 hrs by MTT assay; format: functional, cell-based; conditions: Chlorocebus aethiops, MARC145, 72 h

Row | Compound | inhibition of growth at 40 µg/mL (SGC-7901 [1]) [%] | inhibition of growth at 40 µg/mL [2] [%] | inhibition of growth at 40 µg/mL (HepG2 [3]) [%] | inhibition of growth at 40 µg/mL [4] [%] | IC50 (SGC-7901 [5]) [µM] | IC50 [6] [µM] | IC50 (HepG2 [7]) [µM] | IC50 [8] [µM]
1 | Cc1ccc(CNC(=O)c2cc3c([nH]c4ccccc43)c(C(=O)c3c[nH]c4ccccc34)n2)cc1 | 64 | 27 | 63.9 | 55 | 66 | > 85 | 65.3 | 73.2
2 | COc1cc(CNC(=O)c2cc3c([nH]c4ccccc43)c(C(=O)c3c[nH]c4ccccc34)n2)ccc1O | 83.1 | 81.7 | 80.9 | 79.1 | 16.2 | 8.47 | 11.1 | 21.8
3 | COc1ccc(CCNC(=O)c2cc3c([nH]c4ccccc43)c(C(=O)c3c[nH]c4ccccc34)n2)cc1OC | 22.1 | 0 | 31.7 | 38.4 | > 75 | > 75 | > 75 | > 75
4 | O=c1[nH]cc(F)c(=O)[nH]1 [FLUOROURACIL] | 79.9 | 61 | 72.6 | 66.7 | 53.6 | 62.1 | 66.4 | 116
5 | COC(=O)C(CO)NC(=O)c1cc2c([nH]c3ccccc32)c(C(=O)c2c[nH]c3ccccc23)n1 (stereo not given) | 82.7 | 83.9 | 79 | 83.2 | 14.3 | 10.5 | 9.99 | 16.3
6 | COc1cccc(CCNC(=O)c2cc3c([nH]c4ccccc43)c(C(=O)c3c[nH]c4ccccc34)n2)c1 | 39.3 | 16.6 | 40.1 | 48.4 | > 80 | > 80 | > 80 | > 80
7 | O=C(NCCc1ccccc1)c1cc2c([nH]c3ccccc32)c(C(=O)c2c[nH]c3ccccc23)n1 | 84.5 | 77.1 | 82.3 | 79.8 | 23 | 44.8 | 19.8 | 25.9
8 | COc1ccc(NC(=O)c2cc3c([nH]c4ccccc43)c(C(=O)c3c[nH]c4ccccc34)n2)cc1 | 41.2 | 72.1 | 44.8 | 42 | > 85 | 65.4 | > 85 | > 85
9 | O=C(NCc1cccnc1)c1cc2c([nH]c3ccccc32)c(C(=O)c2c[nH]c3ccccc23)n1 | 70.1 | 74.2 | 82.8 | 73.8 | 33.1 | 25.2 | 18.5 | 20.8
10 | COC(=O)c1cc2c([nH]c3ccccc32)c(C(=O)c2c[nH]c3ccccc23)n1 | 48.6 | 36.8 | 62.7 | 35.9 | > 100 | > 100 | > 100 | > 100
